Data on ten molecules can be found in patent US5264423A, “Inhibitors for replication of retroviruses and for the expression of oncogene products” (The United States of America as represented by the …, priority 1992, dated 1993).

For one series, the system named is HL60 cells. Put plainly: HL60 cell growth (cell count). The format is cell-based. The following applies: in words.
In series [1] the test system is HIV (HTLV-IIIB) in ATH8 cells. Put plainly: HIV cytopathic effect inhibition (viable ATH8 cells, trypan blue). The following applies: for protection of target cells, single agent: each agent alone (2 micromoles dideoxyadenosine; 5 micromoles S-dC14), 1000 virions per cell, day 13; for anti-HIV activity (cytopathic effect): in words. The protocol: FIGS. 1A-1D and Table 1, The target cells (2×10^5 ATH8 cells) in each tube were pretreated with the stated concentration of each oligomer for 16 hours and then incubated with Polybrene for 45 minutes. After centrifugation, each set of pelleted cells was exposed to HIV (500 virions per cell, which is a much higher dose than the minimal cytopathic dose) and incubated for one hour. Complete media (2 ml RPMI1640) supplemented with L-glutamine (4 mti), 2-mercaptoethanol ([…]), penicillin (50 unit/ml), and streptomycin (50 micrograms/ml), and containing 15% fetal calf serum and IL-2 (15% of conventional IL-2 from Advanced Biotechnologies, Inc., Silver Spring, MD, plus 20 unit/ml of recombinant IL-2 from Amgen Biochemicals, Thousand Oaks, CA) with the various concentrations of oligomers added. The number of viable cells were counted in a hemocytometer using the trypan blue exclusion method for day 7 following exposure to the virus. Filled columns represent non-virus exposed cells, and dotted columns represent virus exposed cells.
The HIV cytopathic effect inhibition with oligodeoxynucleotides was performed with 18 hours of pretreatment of 2×10^5 target cells (ATH8 cells) with oligos prior to exposure to HTLV-IIIB. After this pretreatment, target cells were treated with Polybrene (2 micrograms/ml) for one hour. The target cells were then, respectively, exposed to HTLV-IIIB virus (generally 500 virions per cell in this series of experiments) for one hour. The 2×10^5 cells were then diluted to 2 ml with complete media containing IL-2 and various concentrations of oligos.
The number of viable cells was counted in a hemocytometer using the trypan blue exclusion method on day 7 following exposure to the virus. Each set of data were obtained from simultaneously performed experiments so as to make a precise comparison among agents tested.
The target cells (2×10^5 ATH8 cells per tube) were preincubated with the stated concentrations of S-dC14 for 24 hours and pretreated with 2 micrograms/ml of Polybrene for 45 minutes. After centrifugation, pelleted cells were exposed to the HIV (1000 virions per cell) for one hour. The cells were incubated in 2 ml of complete media containing IL-2, and the viable cells were counted on day 13.
On day 13 after the exposure to the virus, viable cells were counted by the trypan blue dye exclusion method.
On the technique in general: Cytopathic effects are the visible damage that an infection or toxin causes in cultured cells.

Series [2] deals with de novo HIV DNA synthesis in ATH8 cells. Put plainly: Southern blot of de novo HIV DNA synthesis. The format is cell-based. The following applies: positive control, 50 micromoles (lanes E and J). The text has this:
Target cells (1×10^7 ATH8 cells) were pretreated with or without S-dC28 at various concentrations for sixteen hours, then treated with Polynrene, exposed to HIV (500 virus particles per cell), resuspended, and cultured in the presence or absence of S-dC28. On days 4 and 7 following the exposure to the virus, high molecular weight DNA was extracted, digested with Asp718 (a Kpn I isoschizomer from Boehringer-tiannheim, Indianapolis, IN), and subjected to Southern blot analysis hybridized with a labelled insert of molecular clone of the env region of HTLV-III (BH10) containing a 1.3 Kb Bgl II fragment.
FIGS. 6A-6D show the inhibitor effect of the phosphorothioate oligodeoxycytidine analog (S-dC28) on de novo HIV DNA synthesis in target cells. On days 4 and 7 following the exposure to the virus, a substantial amount of viral DNA was detected by Southern blot analysis without antiviral agents.
On day 4, shown in lanes A-E, and day 7, shown in lanes F-J, following exposure to the virus, high molecular weight DNA was extracted. Lanes A and F contain DNA from ATH8 cells that were exposed to the virus and not protected by S-dC28. Lanes B and G, C and H, D and I, contain DNA from ATH8 cells pretreated and cultured with 1 micromole, 5 micromoles, and 7 micromoles S-dC28, respectively. Lanes E and J contain DNA from ATH8 cells treated with 50 micromoles 2', 3'-dideoxyadenonsine, and lane K contains DNA from ATH8 cells that was not exposed to the virus.

The test system of a further series is ATH8 cells. Nature of the series: Cytotoxicity of ODNs (Table 2). The format is cell-based. An excerpt:
Since phosphorothioate ODNs which are not anti-sense sequences appear to be very effective antiviral agents, an attempt was made to clarify the nature of the base composition effect.

In another series the test system is gamma-interferon. Nature of the series: Induction of gamma-interferon in culture supernatant. The format is cell-based. Conditions: supernatant of the culture. The text has this: Another mechanism which should be considered is induction of interferon production such as that proposed for phosphorothioate analogs of poly-r(I-C). […] Also, since there are no data to support the concept that phosphorothioate internucleotide linkages have a thiol character, and can thus form disulfides, the mechanism of action would likely be different from that proposed for antiviral polynucleotides having thiolated bases such as 5-mercapto-cytosine or -uracil.

Series [3] in a line: Stability in in vitro test media followed by 31P NMR. The class given is in vitro ADME. The text has this:
The phosphorothioate oligodeoxynucleotides of the present invention have suitable chemical characteristics, namely, the ability to hybridize with complementary DNA/MRNA under physiological conditions, and better solubility properties relative to methylphosphonates. Moreover, the thioesters are as soluble in biological media as the parent compounds.
Thus, it is believed that it is mainly the relative resistance of the phosphorothioate analogs to nucleases that preserves them relative to n-ODNs, and allows them to reach and remain at their target site. This was supported in relation to the media used in the in vitro test system by following the 31P NMR spectra of the n-ODN-1 and S-ODN-1 compounds as a function of time.

The next series has as its system endonuclease S1. Put plainly: Nuclease susceptibility, S1 nuclease. The format is in vitro ADME. An excerpt: (§1) Several oligodeoxynucleotides were studied with regard to DNase sensitivity, cf. Table 5. These include cytidine homopolymers, ODN-4 (an anti-message 28-mer complementary to the 3' region of the art/trs region of HIV BH10 clone), and myc-1 (a 15-mer complementary to the initiation codon region of the C-myc oncogene). The DNases employed were predominantly endonuclease S1, the exo- and endonuclease P1, and snake venom (SV) phosphodiesterase. The concentration of S1 nuclease was ten-fold higher (100 micromoles/ml) for reactions of oligo-dc, since both the normal and PS analog were degraded extremely slowly be this enzyme. S1 and P1 nuclease digestion proceeded at 2-45 times more slowly for the S-ODNs than for the normal oligomers, with the […] being somewhat more readily digested than the 28-mer.

The subject of the next series is exo- and endonuclease P1. Put plainly: Nuclease susceptibility, P1 nuclease. The class given is in vitro ADME.
Description: as §1

Series [4] concerns snake venom (SV) phosphodiesterase. Put plainly: Nuclease susceptibility, snake venom phosphodiesterase. The format is in vitro ADME.
Description: as §1

A short description of a further series: Stability in human serum. The class given is in vitro ADME. Conditions: 31P NMR.

Entries after “also recorded” stand apart in the source; their conditions may differ.

With “5'-CTG AAG TGG CAT GAG (CTGAAGTGGCATGAG; all phosphorothioate, sugars by position and methylation of C not given here) [non-sense sequence, reference compound]”, the “effect on HL60 cell proliferation” value in the series with HL60 cells is reported as “none of the controls used, namely, the non-sense sequence, has shown similar activity”; with HL60 cells (listed as nonsense S-ODN) it was “not all nonsense S-ODN concentrations affected cell proliferation”.
For `Nc1ncnc2c1ncn2[C@H]1CC[C@@H](CO)O1` [2', 3'-dideoxyadenosine, reference compound], the “protection of target cells, single agent” value in series [1] is “only marginal protective effects”. The “inhibition of de novo synthesis of viral DNA” value is “significantly inhibited the de novo synthesis of viral DNA” in [2]; “detected only in lanes A and F” in [2] (listed as 2', 3'-dideoxyadenonsine).
Consider `Nc1ccn([C@H]2CC[C@@H](CO)O2)c(=O)n1` [2', 3'-dideoxycytidine, reference compound], for which the “protection against the virus / antiviral activity” value in [1] (0.5 micromoles) is on record as “complete antiviral activity”.
Turning to (dC)n n = 14 [S-dC14], the “ANTI-VIRAL EFFECT (%)” value in [1] (1 uM) turned out to be 25%; in series [1] (5 uM), 100%; in series [1] (10 uM) it was 100%; in series [1] (25 uM), 100%. For the same molecule, in series [1] (5 micromoles (65 micromole equivalents), FIGS. 6B-6D), the “protection against the virus” value is on record as “only a moderate effect”. For the same molecule, the “protection of target cells, single agent” value in series [1] was “only marginal protective effects”. Moreover, the figures for the “anti-HIV activity (cytopathic effect)” value in series [1] and in series [1] (listed as 14-mer oligo-dc) were “most potent antiviral compound among those tested in this series of experiments” and “substantial protection against HIV cytopathic effect”, respectively. Besides, the “CYTOTOXICITY (%)” value in the series on ATH8 cells (1 uM), in the series with ATH8 cells (5 uM), in the series with ATH8 cells (10 uM) and with ATH8 cells (25 uM) was 0% in each case. Moreover, in the series on gamma-interferon, the induction of gamma-interferon entry is listed as “No induction of gamma-interferon”.
For the molecule “d-(Cs As Ts As Gs Gs As Gs As Ts Gs Cs Cs T) [S-ODN-3]”, the “ANTI-VIRAL EFFECT (%)” value in series [1] (1 uM) is 0%; in series [1] (5 uM), 6%; in [1] (10 uM), 44%; in [1] (25 uM), 94%. Moreover, the “CYTOTOXICITY (%)” value stood at 0% with ATH8 cells (1 uM), 0% with ATH8 cells (5 uM), 0% in the series with ATH8 cells (10 uM) and 13% in the series with ATH8 cells (25 uM).
With “d-(Gs Gs As Gs As Cs As Gs Cs Gs As Cs Gs A) [S-ODN-2]”, the “ANTI-VIRAL EFFECT (%)” value turned out to be 11% in series [1] (1 uM), 56% in series [1] (5 uM), 100% in series [1] (10 uM) and 78% in series [1] (25 uM). In addition, the “anti-HIV activity (cytopathic effect)” value in [1] was “protected against HIV”. In addition, the “CYTOTOXICITY (%)” value in the series with ATH8 cells (1 uM) came out at 0%; in the series with ATH8 cells (5 uM), 0%; with ATH8 cells (10 uM), 0%; in the series with ATH8 cells (25 uM) it was 6%.
As for “d-(Ts Cs Gs Ts Cs Gs Cs Ts Gs Ts Cs Ts Cs C) [S-ODN-1]”, the “ANTI-VIRAL EFFECT (%)” value in series [1] (1 uM) was found to be 0%; in series [1] (5 uM), 43%; in [1] (10 uM) it was 72%; in [1] (25 uM) it was 95%. Besides, the “anti-HIV activity (cytopathic effect)” value in series [1] is on record as “substantial activity against HIV; also recorded: protected against HIV”. Besides, the “CYTOTOXICITY (%)” value is given as 0% in the series on ATH8 cells (1 uM), 0% with ATH8 cells (5 uM), 0% in the series on ATH8 cells (10 uM) and 20% in the series with ATH8 cells (25 uM). For the same molecule, in [3] (10 days), the “phosphorothioate bonds after 10 days” value is “still intact after 10 days”. In [3] (after 10 days), the “decomposition based on the total signal intensity” value was “less than 5%”. Besides, in series [3] (up to a week), the “degradation / half-life in media used in the in vitro test system” value is listed as “no significant degradation even after a week”.
Take “dAACGTTGAGGGGCAT [O-myc-1, reference compound]”: the “Nuclease susceptibility, t1/2” value with endonuclease S1 was 36 s; in the series on exo- and endonuclease P1, 69 s; in series [4] it was 28 s. Besides, the “half-life in 50% human serum” value in “Stability in human serum” was “two to three days”.
For the molecule “dTCGTCGCTGTCTCCGCTTCTTCCTGCCA [O-ODN-4, reference compound]”, the “Nuclease susceptibility, t1/2” value in the series with exo- and endonuclease P1 came to 72 s; in series [4], 20 s.
“recombinant gamma-interferon: recombinant alpha- or gamma-interferon”: the “inhibition of the cytopathic effect” value in series [1] (1000 units added directly to the cultures) was “did not inhibit the cytopathic effect”.
